Experimental data as given in BindingDB's records for doi:10.1016/j.ejmech.2009.07.027 (Trinity College, 2009).

Assay: Induction of human SERT-dependent cytotoxicity in SERT expressing HEK293 cells after 48 hrs by neutral red assay

In the case of `CCSc1ccc(CC(CC)NC)cc1` (stereo unspecified) [2-N-Methylamino-1-(4-ethylthiophenyl)butane], the EC50 is reported as greater than 100 µM.
